Measured values reported in article PMC10502144, “Anti-methicillin-resistant Staphylococcus aureus activity and safety evaluation of 14-O-[(5-ethoxycarbonyl-4,6-dimethylpyrimidine-2-yl) thioacetyl] mutilin (EDT)” (Scientific Reports, 2023).
Where a name gives a salt, the structure may show the parent alone. Read-outs that look alike come from different tables or passages of the source.

What was measured:
[1] = tested on: clinical isolates of MRSA; experiment: MIC by broth serial-dilution against 48 clinical isolates of MRSA; format: cell-based, methicillin-resistant Staphylococcus aureus; settings: Staphylococcus aureus; for MIC: MRSA
Protocol: The tests against 48 clinical isolates of MRSA from dairy farms in 4 different provinces in China[37] were conducted in triplicate, using broth serial-dilution method in 96-well plates according to CLSI reference methods. Briefly, EDT and tiamulin fumarate used as referent drug were dissolved in 25% dimethyl sulfoxide (DMSO) to a solution with concentration of 64 μg/mL. The obtained 100 μL solutions were then added into the first column of the 96-well plate, and diluted to the tenth well with serial twofold dilutions. The last two wells were used as positive controls. The 100 μL bacterial suspension was diluted in MHB to give a final organism density of to 10^5 ~ 10^6 colony-forming unit (CFU) per 1 mL and added to all the wells, followed by incubating at 37 °C for 24 h. […] The results were expressed as an average of the MICs obtained from three independent experiments.

[2] = tested on: CYP3A4; settings: cited from earlier work

C=C[C@]1(C)C[C@@H](OC(=O)CSCCN(CC)CC)[C@]2(C)[C@H](C)CC[C@]3(CCC(=O)[C@H]32)[C@@H](C)[C@@H]1O [tiamulin, Tiamulin fumarate, reference compound]
MIC ([1]; range over 48 clinical isolates of MRSA, read-out: MIC values against 48 strains): 0.125 to 1 µg/mL | MIC ([1]; strain CX1, read-out: MIC): 0.5 µg/mL | MIC ([1]; strain CX2, read-out: MIC): 0.5 µg/mL | MIC ([1]; strain CX5, read-out: MIC): 0.5 µg/mL | MIC ([1]; strain CX6, read-out: MIC): 0.5 µg/mL | MIC ([1]; strain CX7, read-out: MIC): 0.5 µg/mL | MIC ([1]; strain CX9, read-out: MIC): 1 µg/mL | MIC ([1]; strain HG1, read-out: MIC): 0.25 µg/mL | MIC ([1]; strain HG2, read-out: MIC): 0.5 µg/mL | MIC ([1]; strain HG3, read-out: MIC): 0.5 µg/mL | MIC ([1]; strain HG4, read-out: MIC): 0.5 µg/mL | MIC ([1]; strain HG5, read-out: MIC): 0.5 µg/mL | MIC ([1]; strain HG6, read-out: MIC): 0.5 µg/mL | MIC ([1]; strain HG7, read-out: MIC): 0.5 µg/mL | MIC ([1]; strain QY4, read-out: MIC): 0.5 µg/mL | MIC ([1]; strain QY5, read-out: MIC): 0.5 µg/mL | MIC ([1]; strain QY6, read-out: MIC): 0.5 µg/mL | MIC ([1]; strain QY8, read-out: MIC): 0.5 µg/mL | MIC ([1]; strain QY10, read-out: MIC): 0.5 µg/mL | MIC ([1]; strain SH3, read-out: MIC): 0.5 µg/mL | MIC ([1]; strain SH4, read-out: MIC): 0.5 µg/mL | MIC ([1]; strain SH6, read-out: MIC): 0.5 µg/mL | MIC ([1]; strain SH7, read-out: MIC): 0.5 µg/mL | MIC ([1]; strain SH8, read-out: MIC): 0.25 µg/mL | MIC ([1]; strain SH9, read-out: MIC): 0.5 µg/mL | MIC ([1]; strain SH10, read-out: MIC): 0.5 µg/mL | MIC ([1]; strain SH11, read-out: MIC): 0.5 µg/mL | MIC ([1]; strain SH12, read-out: MIC): 0.5 µg/mL | MIC ([1]; strain SH13, read-out: MIC): 0.5 µg/mL | MIC ([1]; strain SH14, read-out: MIC): 0.125 µg/mL | MIC ([1]; strain SH15, read-out: MIC): 0.5 µg/mL | MIC ([1]; strain SX5, read-out: MIC): 0.5 µg/mL | MIC ([1]; strain SX6, read-out: MIC): 1 µg/mL | MIC ([1]; strain SX7, read-out: MIC): 0.5 µg/mL | MIC ([1]; strain SX8, read-out: MIC): 0.5 µg/mL | MIC ([1]; strain SX9, read-out: MIC): 0.5 µg/mL | MIC ([1]; strain SX10, read-out: MIC): 0.5 µg/mL | MIC ([1]; strain SX16, read-out: MIC): 1 µg/mL | MIC ([1]; strain SX17, read-out: MIC): 0.5 µg/mL | MIC ([1]; strain SX18, read-out: MIC): 0.5 µg/mL | MIC ([1]; strain ZY1, read-out: MIC): 0.5 µg/mL | MIC ([1]; strain ZY2, read-out: MIC): 0.5 µg/mL | MIC ([1]; strain ZY3, read-out: MIC): 0.25 µg/mL | MIC ([1]; strain ZY4, read-out: MIC): 0.5 µg/mL | MIC ([1]; strain ZY5, read-out: MIC): 0.5 µg/mL | MIC ([1]; strain ZY6, read-out: MIC): 1 µg/mL | MIC ([1]; strain ZY7, read-out: MIC): 0.5 µg/mL | MIC ([1]; strain ZY8, read-out: MIC): 1 µg/mL | MIC ([1]; strain ZY9, read-out: MIC): 0.25 µg/mL | inhibition at 0.0625 µg/mL ([1]; at 0.0625 µg/mL, 48 clinical isolates of MRSA, read-out: strains inhibited): 0% | IC50 [2]: 1600 nM
